# Measurements taken from US10709704B2, “Treating neural disease with tyrosine kinase inhibitors” (GEORGETOWN UNIVERSITY, priority 2012, dated 2020).
# Columns and labels:
# [1] = tested on: mice injected with lentiviral α-synuclein into the substantia nigra; test: Rotarod, lentiviral α-Synuclein mice; assay type: in vivo, mouse
# Description: Mice were placed on an accelerating rotarod (Columbus Instruments) equipped with individual timers for each mouse. […] All values were converted to % control.
# [2] = tested on: molecular markers of autophagy; test: Western blot of autophagy markers, A53T mice; assay type: in vivo, mouse; conditions: daily IP Nilotinib 3 weeks
# Description: Rabbit polyclonal (1:1000) tubulin (Thermo Scientific) was used.
# [3] = tested on: Aβ1-42 plaques and intracellular Aβ1-42; test: Plaque and intracellular Aβ1-42 staining, lentiviral Aβ1-42 parkin−/− mice; assay type: in vivo, mouse
# Procedure: Immunohistochemistry was performed on 20 micron-thick 4% paraformaldehyde (PFA) fixed cortical brain sections. Aβ1-42 was probed (1:200) with rabbit polyclonal specific anti-Aβ1-42 antibody (Zymed) that recognizes a.a.1-42, and (1:200) mouse monoclonal antibody (4G8) that recognizes amino acid 17-24 (Covance) and counterstained with DAPI. Parkin was immunoprobed (1:200) with mouse anti-parkin (PRK8) antibody that recognizes amino acid 399-465 (Signet Labs, Dedham, Mass.) and rabbit polyclonal (1:200) anti-parkin (AB5112) antibody that recognizes amino acid 305-622 (Millipore) and counterstained with DAPI. Mouse monoclonal (6E10) antibody (1:100) with DAB were used (Covance) and thioflavin-S was performed according to manufacturer's instructions (Sigma).
# Stereological methods were applied by a blinded investigator using unbiased stereology analysis (Stereologer, Systems Planning and Analysis, Chester, Md.) as described in (20,36).
# [4] = tested on: Tg-APP mice; test: Novel object recognition, Tg-APP mice; assay type: in vivo, mouse; conditions: Tg-APP+Nilotinib
# Procedure: Mice were placed individually in a 22×32×30 cm testing chamber for a 5 min habituation interval and returned to their home cages. Thirty minutes later mice were placed in the testing chamber for 10 min with two identical objects (acquisition session), then returned to their home cages and […] placed back in the testing chamber in the presence with one of the original objects and one novel object of the same size but of a different color and shape (recognition session). Sessions were video recorded. Time spent exploring the objects were scored by blind observer. The recognition index was calculated as (time exploring one of the objects/time exploring both objects)×100 for acquisition session, and (time exploring new object/time exploring both familiar and novel objects)×100 for the recognition session. Statistical calculations to estimate differences between sessions were performed with a pairwise t-test.
# These experiments were repeated in 1 year old Tg-APP mice and age-matched control (C57BL/6).
# [5] = tested on: GFP-tagged TDP-43; test: Distribution of GFP-tagged TDP-43 in M17 cells; assay type: cell-based, human; parameters: distribution of GFP-tagged TDP-43 / translocation of GFP-tagged TDP-43 with Nilotinib or Bosutinib: unit of the concentration uncertain; conditions: Nilotinib (10 µM) or Bosutinib (5 µM) for additional 24 hrs
# Procedure: Human neuroblastoma M17 cells (seeding density 2×10^5 cells) were grown in 24 well dishes (Falcon) to 70% confluence in Dulbecco's Modified Eagle Medium (DMEM; Invitrogen) plus 10% (v/v) heat-inactivated fetal bovine serum (Invitrogen), penicillin/streptomycin, and 2 mM L-glutamine at 37° C. and 5% CO2, washed twice in phosphate-buffered saline (PBS). Transient transfection was performed with 3 μg parkin cDNA or 3 μg TDP-43 cDNA, or 3 μg LacZ cDNA. Cells were treated with 5 μM tubacin for 24 hours and DAPI stained in 12 well dishes. Cells were harvested 24 hours after transfection. Transfection was performed in DMEM without serum using Lipofectamine 2000 (Invitrogen) according to the manufacturer's protocol. […] Western blot was performed on NuPAGE 4-12% Bis-Tris gel (Invitrogen). Protein estimation was performed using the microscale BioRad protein assay (BioRad Laboratories Inc, Hercules, Calif., USA).
# To ascertain that both parkin and HDAC6 are required for TDP-43 translocation, GFP-tagged TDP-43 was expressed in M17 neuroblastoma cells in the presence of wild type or loss-of-function mutant (T240R) parkin, and treated with 5 μM selective HDAC6 inhibitor for 24 hours.
# The following data support these conclusions.
# [6] = tested on: autophagic vacuoles and lysosomes; test: Subcellular fractionation and ELISA, lentiviral Tau±Aβ1-42 mice; assay type: in vivo, mouse
# Procedure: Brain tissues were fractionated to isolate AVs and human specific ELISA was performed to determine Aβ1-42 contents. […] It was also observed that autophagic clearance is parkin-dependent.
# Brain tissues were fractionated to isolate AVs and mouse specific ELISA was performed to determine protein contents.
# Brain tissues were fractionated to isolate AVs and human specific ELISA was performed to determine protein contents.
# 0.5 g of Frozen human or animal brains were homogenized at low speed (Cole-Palmer homogenizer, LabGen 7, 115 Vac) in 1×STEN buffer and centrifuged at 1,000 g for 10 minutes to isolate the supernatant from the pellet. The pellet was re-suspended in 1×STEN buffer and centrifuged once to increase the recovery of lysosomes. The pooled supernatants were then centrifuged at 100,000 rpm for 1 hour at 4° C. to extract the pellet containing autophagic vacuoles (AVs) and lysosomes. The pellet was then re-suspended in 10 ml (0.33 g/ml) 50% Metrizamide and 10 ml in cellulose nitrate tubes. A discontinuous Metrizamide gradient was constructed in layers from bottom to top as follows: 6 ml of pellet suspension, 10 ml of 26%; 5 ml of 24%; 5 ml of 20%; and 5 ml of 10% Metrizamide (Marzella et al., 1982). After centrifugation at 10,000 rpm for 1 hour at 4° C., the fraction floating on the 10% layer (Lysosome) and the fractions banding at the 24%/20% (AV 20) and the 20%/10% (AV10) Metrizamide inter-phases were collected by a syringe and examined.
# Animal brains were homogenized at low speed (Cole-Palmer homogenizer, LabGen 7, 115 Vac) in 1×STEN buffer and centrifuged at 1,000 g for 10 minutes to isolate the supernatant from the pellet. The pellet was re-suspended in 1×STEN buffer and centrifuged once to increase the recovery of lysosomes. The pooled supernatants were then centrifuged at 100.000 rpm for 1 hour at […] to extract the pellet containing autophagic vacuoles (AVs) and lysosomes. The pellet was then re-suspended in 10 ml (0.33 g/ml) 50% Metrizamide and 10 ml in cellulose nitrate tubes. […]
smiles,measurement,setting,value
Cc1cn(-c2cc(NC(=O)c3ccc(C)c(Nc4nccc(-c5cccnc5)n4)c3)cc(C(F)(F)F)c2)cn1 [Nilotinib],rotarod motor performance,[1]; lentiviral α-Synuclein mice + Nilotinib (DMSO 39%),86 % of LacZ level
same,motor performance (rotarod),"[1]; lentiviral α-synuclein mice, 10 mg/kg Nilotinib or 5 mg/Kg Bosutinib",improved motor performance
same,LC3-II level,[2],completely disappeared
same,increase in Atg-5 compared to DMSO,[2],29%
same,increase in beclin-1 compared to DMSO,[2],69%
same,plaque size,[3]; Aβ1-42 parkin−/− mice + Nilotinib (DMSO 85 μm),79 μm
same,Aβ1-42 positive cells (stereological counting),[3]; Aβ1-42 parkin−/− mice + Nilotinib (DMSO N=14566),13250
same,plaque load,"[3]; Aβ1-42 parkin−/− mice, Nilotinib",did not reduce plaque load
same,better performance at finding new objects than DMSO mice,[4],31%
same,distribution of GFP-tagged TDP-43,[5],translocation of GFP-tagged TDP-43 from nucleus (A) into the cytosol
same,"autophagic clearance of p-Tau ser 396, human specific ELISA","[6]; lentiviral Tau±Aβ1-42 mice, 10 mg/kg Nilotinib or 5 mg/Kg Bosutinib daily 3 weeks",enhances autophagic clearance
same,autophagic clearance of Aβ1-42 (deposition in AV-20 and lysosome),"[6]; lentiviral Tau±Aβ1-42 mice, IP 10 mg/kg Nilotinib daily 3 weeks",enhances autophagic clearance
same,"autophagic clearance of p-Tau ser 396, mouse specific ELISA","[6]; lentiviral human Tau±Aβ1-42 mice, IP 10 mg/kg Nilotinib daily 3 weeks",enhances autophagic clearance
